This note sets out measurements from US20230279025A1, “KRAS G12D INHIBITORS” (Mirati Therapeutics, Inc., priority 2020, published 2023).

Structures can show the parent of a compound that is named as a salt.

For the assay, the target named is KRas G12D (Homo sapiens (Human), UniProt P01116, G12D). Put plainly: KRas G12D Binding Assay (TR-FRET displacement of Cy5 labelled tracer). Conditions: GDP-loaded KRAS G12D (amino acids 1:169), 60 minute incubation at 22° C. On the procedure:
After a 60 minute incubation at 22° C., the reaction was measured using a PerkinElmer EnVision multimode plate reader via TR-FRET dual wavelength detection, and the percent of control (POC) calculated using a ratiometric emission factor. […] The POC values were fit to a 4-parameter logistic curve and the IC50 value was determined as the concentration where the curve crosses 50 POC.
ND stands for “not determined.”

KRas G12D, sequence (P01116 other isoform, or with tags, fused parts or gaps G12D): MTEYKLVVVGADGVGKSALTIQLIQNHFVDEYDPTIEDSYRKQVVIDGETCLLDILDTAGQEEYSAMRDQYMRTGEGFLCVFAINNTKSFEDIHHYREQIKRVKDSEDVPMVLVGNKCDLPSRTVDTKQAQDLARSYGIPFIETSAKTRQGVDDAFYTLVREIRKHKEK

What is called IC50 is the concentration needed to halve the response being measured. Low readings indicate greater potency in that assay, high ones weaker potency in that assay. `OCCc1ccccc1-c1ncc2c(N3C[C@H]4CC[C@@H](C3)N4)nc(OCC34CCCN3CCC4)nc2c1F` [Example 315, 2-(2-(4-((1R,5S)-3,8-diazabicyclo[3.2.1]octan-3-yl)-8-fluoro-2-((hexahydro-1H-pyrrolizin-7a-yl)methoxy)pyrido[4,3-d]pyrimidin-7-yl)phenyl)ethanol] yielded an IC50 of 2540 nM.

Regarding `CC(C)c1c(F)cccc1-c1ncc2c(N3C[C@H]4CC[C@@H](C3)N4)nc(OCC34CCCN3CCC4)nc2c1F` [Example 299, 4-((1R,5S)-3,8-diazabicyclo[3.2.1]octan-3-yl)-8-fluoro-7-(3-fluoro-2-isopropylphenyl)-2-((hexahydro-1H-pyrrolizin-7a-yl)methoxy)pyrido[4,3-d]pyrimidine], the IC50 was 132 nM. Then `N#Cc1ccccc1-c1ncc2c(N3CC4CCC(C3)N4)nc(OC[C@@]34CCCN3C[C@H](F)C4)nc2c1F` (stereo in doubt) [Example 409, 2-(4-((1R,5S)-3,8-diazabicyclo[3.2.1]octan-3-yl)-8-fluoro-2-((2-fluorotetrahydro-1H-pyrrolizin-7a(5H)-yl)methoxy)pyrido[4,3-d]pyrimidin-7-yl)benzonitrile], with 2230 nM; and `Fc1c(-c2cccc(Cl)c2C2CC2)ncc2c(N3CC4CCC(C3)N4)nc(OCC34CCCN3C[C@H](F)C4)nc12` (mixture of isomers) [Example 342, 4-((1R,5S)-3,8-diazabicyclo[3.2.1]octan-3-yl)-7-(3-chloro-2-cyclopropylphenyl)-8-fluoro-2-((2-fluorotetrahydro-1H-pyrrolizin-7a(5H)-yl)methoxy)pyrido[4,3-d]pyrimidine (racemic, trans)], with 3.4 nM. Molecule `C[C@H]1CN2CCC[C@@]2(COc2nc(N3CC4CCC(C3)N4)c3cnc(-c4cccc5cccc(Cl)c45)c(F)c3n2)C1` (stereo in doubt) [Example 227, 4-((1R,5S)-3,8-diazabicyclo[3.2.1]octan-3-yl)-7-(8-chloronaphthalen-1-yl)-8-fluoro-2-((2-methyltetrahydro-1H-pyrrolizin-7a(5H)-yl)methoxy)pyrido[4,3-d]pyrimidine bis-hydrochloride] came in with an IC50 of 6.4 nM. Then `C#Cc1cccc2cccc(-c3ncc4c(N5CC6CCC(C5)N6)ncnc4c3F)c12` [Example 188, 4-(3,8-diazabicyclo[3.2.1]octan-3-yl)-7-(8-ethynyl-1-naphthyl)-8-fluoro-pyrido[4,3-d]pyrimidine], with 1920 nM; and `Nc1c(Cl)cc(Cl)c(F)c1-c1ncc2c(N3C[C@H]4CC[C@@H](C3)N4)nc(OCC34CCCN3CCC4)nc2c1F` [Example 266, 2-(4-((1R,5S)-3,8-diazabicyclo[3.2.1]octan-3-yl)-8-fluoro-2-((hexahydro-1H-pyrrolizin-7a-yl)methoxy)pyrido[4,3-d]pyrimidin-7-yl)-4,6-dichloro-3-fluoroaniline], with 278 nM. `CS(=O)(=O)NC[C@H]1CC[C@@]2(COc3nc(N4C[C@H]5CC[C@@H](C4)N5)c4cnc(-c5cccc6cccc(Cl)c56)c(F)c4n3)CCCN12` [Example 420, N-(((3R,7aR)-7a-(((4-((1R,5S)-3,8-diazabicyclo[3.2.1]octan-3-yl)-7-(8-chloronaphthalen-1-yl)-8-fluoropyrido[4,3-d]pyrimidin-2-yl)oxy)methyl)hexahydro-1H-pyrrolizin-3-yl)methyl)methanesulfonamide] displayed an IC50 of 20 nM. The same measure for `Cn1cc([C@H]2CN3CCC[C@]3(COc3nc(N4CC5CCC(C4)N5)c4cnc(-c5cccc6cccc(Cl)c56)c(F)c4n3)C2)cn1` (stereo in doubt) [Example 220, 4-((1R,5S)-3,8-diazabicyclo[3.2.1]octan-3-yl)-7-(8-chloronaphthalen-1-yl)-8-fluoro-2-((2-(1-methyl-1H-pyrazol-4-yl)tetrahydro-1H-pyrrolizin-7a(5H)-yl)methoxy)pyrido[4,3-d]pyrimidine tris-hydrochloride salt]: 8.7 nM; for `Nc1ccc(CCOc2nc(N3C[C@H]4CC[C@@H](C3)N4)c3cnc(-c4cccc5cccc(Cl)c45)c(F)c3n2)cn1` [Example 141, 5-(2-((4-((1R,5S)-3,8-diazabicyclo[3.2.1]octan-3-yl)-7-(8-chloronaphthalen-1-yl)-8-fluoropyrido[4,3-d]pyrimidin-2-yl)oxy)ethyl)pyridin-2-amine]: 891 nM; for `Oc1cc(-c2ncc3c(N4C[C@H]5CC[C@@H](C4)N5)nc(OCC45CCCN4CCC5)nc3c2F)c2c(Cl)c(F)ccc2c1` [Example 245, 4-(4-((1R,5S)-3,8-diazabicyclo[3.2.1]octan-3-yl)-8-fluoro-2-((hexahydro-1H-pyrrolizin-7a-yl)methoxy)pyrido[4,3-d]pyrimidin-7-yl)-5-chloro-6-fluoronaphthalen-2-ol]: 0.5 nM. The same measure for `COCc1cccc2cccc(-c3ncc4c(N5C[C@H]6CC[C@@H](C5)N6)nc(OC[C@@]56CCCN5C[C@H](F)C6)nc4c3F)c12` [Example 423, 4-((1R,5S)-3,8-diazabicyclo[3.2.1]octan-3-yl)-8-fluoro-2-(((2R,7aS)-2-fluorohexahydro-1H-pyrrolizin-7a-yl)methoxy)-7-(8-(methoxymethyl)naphthalen-1-yl)pyrido[4,3-d]pyrimidine]: 238 nM; for `C[C@H](N)COc1nc(N2CC3CCC(C2)N3)c2cnc(-c3cccc4cccc(Cl)c34)c(F)c2n1` [Example 374, (S)-1-((4-((1R,5S)-3,8-diazabicyclo[3.2.1]octan-3-yl)-7-(8-chloronaphthalen-1-yl)-8-fluoropyrido[4,3-d]pyrimidin-2-yl)oxy)propan-2-amine bis(2,2,2-trifluoroacetate)]: 348 nM.

`C#Cc1cccc2cc(O)cc(-c3ncc4c(N5CC6CCC(C5)N6)nc(OC[C@@]56CCCN5C[C@H](OC)C6)nc4c3F)c12` (stereo in doubt) [Example 410, 4-(4-((1R,5S)-3,8-diazabicyclo[3.2.1]octan-3-yl)-8-fluoro-2-((2-methoxytetrahydro-1H-pyrrolizin-7a(5H)-yl)methoxy)pyrido[4,3-d]pyrimidin-7-yl)-5-ethynylnaphthalen-2-ol] had an IC50 of 1 nM. Consider `CCc1cccc2cccc(-c3ncc4c(N5CC6CCC(C5)N6)nc(OC[C@@]56C[C@H](O)CN5C[C@H](O)C6)nc4c3F)c12` [Example 466, (2R,6S,7as)-7a-(((4-((1R,5S)-3,8-diazabicyclo[3.2.1]octan-3-yl)-7-(8-ethylnaphthalen-1-yl)-8-fluoropyrido[4,3-d]pyrimidin-2-yl)oxy)methyl)hexahydro-1H-pyrrolizine-2,6-diol], for which the IC50 was 0.006 nM. Molecule `Fc1ccc2cccc(-c3ncc4c(N5C[C@H]6CC[C@@H](C5)N6)nc(OCC56CCCN5CCC6)nc4c3F)c2c1` [Example 460, 4-((1R,5S)-3,8-diazabicyclo[3.2.1]octan-3-yl)-8-fluoro-7-(7-fluoronaphthalen-1-yl)-2-((hexahydro-1H-pyrrolizin-7a-yl)methoxy)pyrido[4,3-d]pyrimidine] returned an IC50 of 0.027 nM. Take `CO[C@H]1C[C@@H](COc2nc(N3C[C@H]4CC[C@@H](C3)N4)c3cnc(-c4cccc5cccc(Cl)c45)c(F)c3n2)N(C)C1` [Example 149, 4-((1R,5S)-3,8-diazabicyclo[3.2.1]octan-3-yl)-7-(8-chloronaphthalen-1-yl)-8-fluoro-2-(((2S,4S)-4-methoxy-1-methylpyrrolidin-2-yl)methoxy)pyrido[4,3-d]pyrimidine]: the IC50 stood at 870 nM. `COC1(OC)CN2CCCC2(COc2nc(N3C[C@H]4CC[C@@H](C3)N4)c3cnc(-c4cccc5cccc(Cl)c45)c(F)c3n2)C1` (stereo partly drawn) [Example 404, 4-((1R,5S)-3,8-diazabicyclo[3.2.1]octan-3-yl)-7-(8-chloronaphthalen-1-yl)-2-((2,2-dimethoxytetrahydro-H-pyrrolizin-7a(5H)-yl)methoxy)-8-fluoropyrido[4,3-d]pyrimidine] had an IC50 of 60.8 nM.

Take `CC(C)c1c(Cl)cccc1-c1ncc2c(N3C[C@H]4CC[C@@H](C3)N4)nc(OCC34CCCN3CCC4)nc2c1F` [Example 298, 4-((1R,5S)-3,8-diazabicyclo[3.2.1]octan-3-yl)-7-(3-chloro-2-isopropylphenyl)-8-fluoro-2-((hexahydro-1H-pyrrolizin-7a-yl)methoxy)pyrido[4,3-d]pyrimidine]: the IC50 is 8.3 nM.

In turn, `Fc1cccc(-c2ncc3c(N4C[C@H]5CC[C@@H](C4)N5)nc(OCC45CCCN4CCC5)nc3c2F)c1OC(F)F` [Example 302, 4-((1R,5S)-3,8-diazabicyclo[3.2.1]octan-3-yl)-7-(2-(difluoromethoxy)-3-fluorophenyl)-8-fluoro-2-((hexahydro-1H-pyrrolizin-7a-yl)methoxy)pyrido[4,3-d]pyrimidine] yielded an IC50 of 43.6 nM. The same measure for `CC(C)(F)c1ccccc1-c1ncc2c(N3CC4CCC(C3)N4)nc(OC[C@@]34CCCN3C[C@H](F)C4)nc2c1F` (stereo in doubt) [Example 407, 4-((1R,5S)-3,8-diazabicyclo[3.2.1]octan-3-yl)-8-fluoro-7-(2-(2-fluoropropan-2-yl)phenyl)-2-((2-fluorotetrahydro-1H-pyrrolizin-7a(5H)-yl)methoxy)pyrido[4,3-d]pyrimidine]: 560 nM; for `CO[C@H]1CN2CCC[C@]2(COc2nc(N3CC4CCC(C3)N4)c3cnc(-c4cccc5cccc(Cl)c45)c(F)c3n2)C1` [Example 225, 4-((1R,5S)-3,8-diazabicyclo[3.2.1]octan-3-yl)-7-(8-chloronaphthalen-1-yl)-8-fluoro-2-((2-methoxytetrahydro-1H-pyrrolizin-7a(5H)-yl)methoxy)pyrido[4,3-d]pyrimidine bis-2,2,2-trifluoroacetate]: 9.2 nM; for `CC(C)c1ccccc1-c1ncc2c(N3C[C@H]4CC[C@@H](C3)N4)nc(OCC34CCCN3CCC4)nc2c1F` [Example 309, 4-((1R,5S)-3,8-diazabicyclo[3.2.1]octan-3-yl)-8-fluoro-7-(2-isopropylphenyl)-2-((tetrahydro-1H-pyrrolizin-7a(5H)-yl)methoxy)pyrido[4,3-d]pyrimidine]: 205 nM.
